Data taken from patent US20230181496A1, “USE OF NOREPINEPHRINE OR BETA-ADRENERGIC RECEPTOR INHIBITOR IN PREPARATION OF MEDICAMENT FOR NERVE INJURY REPAIR IN DIABETES” (Qingdao Eye Hospital of Shandong First Medical University …, priority 2021, published 2023).
Entries after “also recorded” stand apart in the source; their conditions may differ.

How the values were obtained:
diabetic mice [1] = assay: Corneal nerve regeneration (βIII-tubulin staining, confocal microscope); format: in vivo
Text: Animals were STZ-induced type I diabetic mice (constructedas describedin the prior art: Lingling, Yang, Guohu, Di, Xia, & Qi, et al. (2014). Substance P promotes diabetic corneal epithelial wound healing through molecular mechanisms mediated via the neurokinin-1 receptor. Diabetes, 63(12), 4262-4274.) and their normal controls. Laboratory mice had no corneal defect, neovascularization, or conjunctival injury.
Cornea of diabetic mice and their control mice were subjected to βIII-tubulin staining (as described in the following reference: Wang X, Li W, Zhou Q, et al. MANF Promotes Diabetic Corneal Epithelial Wound Healing and Nerve Regeneration by Attenuating Hyperglycemia-Induced Endoplasmic Reticulum Stress. 2020.), and nerve regeneration was observed under a confocal microscope.
The cornea of diabetic mice and their control mice were stained with βIII-tubulin, and nerve regeneration was observed under a confocal microscope.

diabetic mice [2] = assay: Corneal epithelial repair after 2 mm corneal epithelium scraping (sodium fluorescein staining); format: in vivo
[3] = system: Trigeminal ganglion neurons; assay: Growth of trigeminal ganglion neurons cultured with TKE2 culture supernatants (βIII-Tubulin staining, Neuron J length); format: cell-based, mice; conditions: supernatant added to neurons for 24 h
Protocol: Trigeminal ganglion neurons isolated from normal mice were mixed with a mixture of 40 U/mL papain, 3 mg/mL collagenase, and 4.7 mg/mL dispase II, digested and subjected to gradient centrifugation with percoll (upper layer: 12.5% percoll; lower layer 28% percoll), and isolated to obtain neurons (as describedin the prior art: Malin, S. A., Davis, B. M. & Molliver, D. C. Production of dissociated sensory neuron cultures and considerations for their use in studying neuronal function and plasticity. Nat Protoc 2, 152-160 (2007).). The neurons obtained were cultured on a laminin-coated glass slide overnight. TKE2 culture supernatants under different conditions were added to the neurons and cultured for 24 h; after βIII-Tubulin staining, the length of neuron was analyzed and calculated by Neuron J (after the relative length was analyzed by the software, it was calculated with the control as 1.0).

diabetic mice [4] = assay: Corneal sensitivity after corneal epithelium scraping (Cochet-Bonnet aesthesiometer); format: in vivo
TKE2 cells = assay: Expression of neurotrophic factors NGF and GDNF in TKE2 cells (qPCR and ELISA); format: cell-based, mouse; conditions: 24 h
Protocol: TKE2 cells cultured under different conditions were collected for mRNA extraction, and their culture supernatants were collected; after qPCR and ELISA, expression levels of neurotrophic factors NGF and GDNF were obtained, respectively. Herein, primers for the detection of expression of NGF and GDNF by qPCR were as follows: The reaction system was as follows: 2×SYBR: 5 μL; upstream primer: 0.3 μL; downstream primer: 0.3 μL; RNase-free water: 2.4 μL; cDNA: 2 μL; total: 10 μL; The reaction program was as follows: PCR initial denaturation: 95° C. for 2 min; two-step program: 40 cycles of 95° C. for 5 s and 60° C. for 10 s. The ELISA was conducted by ELISA Kit for mouse NGF (USCN Life Science Inc. Wuhan, China) and mouse GDNF(Abcam, ab171178, Shanghai, China).

diabetic mice [5] = assay: Expression of NGF and GDNF in corneal epithelium (mRNA detection and immunofluorescence staining); format: in vivo; conditions: diabetic mice dropped in eyes with β2-adrenergic receptor antagonist
Text: mRNA was extracted from the corneal epithelia of the diabetic mice and the diabetic mice treated with β2-adrenergic receptor antagonist; meanwhile, expression levels of NGF and GDNF in epithelial cells were detected according to the example, and expression levels of NGF and GDNF in epithelia of the diabetic mice and the diabetic mice dropped in eyes with β2-adrenergic receptor antagonist were detected by immunofluorescence staining.

## NCCc1cc(O)c(O)cc1O [6-OHDA, 6-hydroxydopamine]
Diabetic mice [1]; Example 8: 100 mg/kg intraperitoneally, four consecutive days, 100 mg/kg
  corneal nerve regeneration: promoting effect; also recorded: effectively promoted the corneal nerve regeneration

## Cc1ccc(OCC(O)C(C)NC(C)C)c2c1CCC2 (centres unmarked) [ICI 118,551]
Diabetic mice [2]; 10-100 μM eye drops, 5 μL/eye, 4 times/day, two consecutive days, 0, 24, 36, 48 h after modeling
  diabetic corneal epithelial repair: significantly promote the diabetic corneal epithelial repair
Diabetic mice [2]; Example 8: 100 mg/kg intraperitoneally, four consecutive days, scraped at 7th day, 0, 36, 48 h after modeling
  diabetic corneal epithelial repair: significantly promote the diabetic corneal epithelial repair
Diabetic mice [1]; diabetic mice treated with β2-adrenergic receptor antagonist eye drops
  corneal nerve regeneration: promoting effect; also recorded: effectively promote corneal nerve regeneration
[3]; TKE2 cells treated with 10 μM NE + 50 μM antagonist for 24 h
  reversal of nerve growth inhibition caused by elevated norepinephrine: better reverse nerve growth inhibition
Diabetic mice [4]; 10-100 μM eye drops, 5 μL/eye, 4 times/day, two consecutive days
  corneal sensitivity: significantly promote
Diabetic mice [4]; Example 8: 100 mg/kg intraperitoneally, four consecutive days, scraped at 7th day
  corneal sensitivity: recover the sensitivity
TKE2 cells; 10 μM NE + 50 μM antagonist
  reversal of downregulated expression of NGF and GDNF caused by NE: reverse the downregulated expression of NGF and GDNF
Diabetic mice [5]
  expression of NGF and GDNF in corneal epithelium: significantly upregulated the expression of NGF and GDNF

## NC[C@H](O)c1ccc(O)c(O)c1 [norepinephrine]
[3]; TKE2 cells treated with 10 μM NE for 24 h
  nerve growth (length of neuron): nerve growth inhibition
TKE2 cells; 10 μM NE
  expression of NGF and GDNF: downregulated expression of NGF and GDNF
